Test results published in patent US12280043B2, “Sustained-release anesthetic compositions and methods of preparation thereof” (TLC Biopharmaceuticals, Inc., priority 2017, dated 2025).

Legend:
[1] = pKa and ionisation state stated in text; format: physicochemical; conditions: at pH 6.0, calculation from pKa
[2] = Pharmacokinetic study after single SC injection; format: in vivo, Sprague-Dawley rats
paw incision mouse model = test: Anesthetic effect in a paw incision mouse model (von Frey mechanical threshold); format: in vivo, C57/BL6 mice; conditions: 0.18 mg ropivacaine per incision
Experimental: Wild type male C57/BL6 mice (8-week-old, Envigo) were used for evaluating the anesthetic efficacy after paw incision as described in Anesthesiology, 2003 October; 99 (4): 1023-7 and J. Neurosci Methods. 1994 July; 53 (1): 55-63. […] Baseline (T=−2 hours) mechanical (von Frey) thresholds of 32 mice were taken prior to surgery; baseline thresholds were measured on the mouse's left hind paw. All 32 mice received a plantar incision (5 mm long and […]) on their left hind paw. Two-hours post-surgery (T=0 hour), the mechanical threshold of each mouse was reassessed and the presence of mechanical allodynia in each mouse was confirmed. Thirty-two mice were randomized into 4 groups (8 mice per group). […] The 50% paw withdrawal threshold of each mouse was obtained using the up-down method at baseline time point (−2), and the designated time points (0, 1, 2, 3, 4, 5, 6, 8, and 24 hours) after SC injection treatment. […] The average 50% withdrawal threshold for each treatment group was graphed; data presented as a withdrawal threshold (g) were plotted against time (FIG. 2A). To account for variability among the baseline mechanical sensitivities of individual mice, each mouse's 50% paw withdrawal thresholds after surgery and treatment were normalized to its own baseline 50% withdrawal threshold (T=−2 hours). […]

[3] = female, Sprague-Dawley, rat, plasma, sc, 20 mg/kg

theoretically uncharged ropivacaine, of available ropivacaine [1]: 0.8% | Cmax [2, 3]: 802 ± 208 ng/mL | half-life [2, 3]: 3.1 ± 1.4 h | AUC(0-t) ([2]; female, Sprague-Dawley, rat, plasma, sc, 20 mg/kg, read-out: AUC0-4): 4040 ± 632 ng·h/mL | time until which ropivacaine could be detected in the plasma ([2]; rats, single SC, same dosage 20.0 mg/kg): ≤ 24 h
SMILES: CCCN1CCCC[C@H]1C(=O)Nc1c(C)cccc1C [Ropivacaine, ropivacaine]
analgesia compared to vehicle group (paw incision mouse model; SC): some degree of analgesia | withdrawal threshold at the first time point (paw incision mouse model; T=1 hour after SC injection, increased from 0.04 g): 0.22 g
